Results reported in patent US12036218B2, “Modulators of airway basal cells for the treatment or prevention of lung diseases” (Fraunhofer Gesellschaft zur Förderung der angewandten …, priority 2020, dated 2024).

Assays:
[1] = system: IPF-ABC with IPF lung fibroblasts; test: MTT cell proliferation assay in IPF-ABC / IPF lung fibroblast co-culture; format: cell-based, human; conditions: in the presence of IPF lung fibroblasts, 21 days; saracatinib 600-8 nM, pirfenidone 1 mM, nintedanib 1 μM
Method: (§1) FIG. 5: SRC-inhibitor saracatinib abrogates bronchosphere formation. (A-E) Bronchosphere assays of human IPF-ABCs were performed w/wo IPF lung fibroblasts for 21 days. Cell cultures (n=12, in triplicates) were treated with either vehicle, saracatinib (600, 210, 75, 25, 8 nM), pirfenidone (1 mM) or nintedanib (1 μM). […] (G, H) In the same model we used GFP^+ fibroblasts to study fibroblast proliferation. […] For statistical comparison repeated measures ANOVA with Tukey correction for multiple testing was used.
(§2) ABCs, either derived from IPF patients or HV, were cultured in matrigel (Corning) in a transwell system with or without lung fibroblasts either derived from patients with IPF or normal lung for 21 days (if not otherwise indicated) in the incubator (5% CO2, 37° C.). Medium exchange (BEGM (Lonza, Basel, Switzerland, #CC-3170)/DMEM (Dulbecco's Modified Eagle Medium (Gibco, Swit Fisher Scientific/Germany); ratio 1:1) was done every 7 days. In some experiments lentiviral transduced GFP expressing fibroblasts were used. Conditioned medium of the 3D organoid culture (day 7 and day 14) was used for ELISA and fibroblast stimulation experiments. Sircol assay (Scientific-Biocolor/UK, #S1000) was performed as recommended by the manufacturer on matrigel and conditioned medium harvested after 6 weeks of cell culture. Bronchosphere formation was documented by Axio Vert.A1/Zeiss/Germany and Axio Observer Z1/Zeiss/Germany. For histology, immunohistology and confocal laser microscopy 3D cell cultures were cryopreserved using Tissue-Tek and cryomolds (Hartenstein/Germany; #CMM). Detailed information is given in the supplement.

[2] = system: IPF-ABC with lung fibroblasts; test: 3D co-culture model of IPF-ABC with lung fibroblasts: bronchosphere formation; format: cell-based, human
Method: as §1
(§3) Based on the Connectivity MAP predictions, the inventors tested whether saracatinib, a known SRC inhibitor previously tested in human cancer is able to modulate IPF-ABC phenotype. […] The results were similar in cells obtained from 12 different individuals with IPF (P<0.0001, FIG. 5B). […] Similar data were obtained by testing cell proliferation in the MTT assay (P<0.0001, FIG. 5C).
as §2

[3] = system: IPF-ABC; test: MTT cell proliferation assay in IPF-ABC 3D culture; format: cell-based, human; conditions: IPF-ABCs without fibroblasts, 21 days; saracatinib 600-8 nM, pirfenidone 1 mM, nintedanib 1 μM
Method: as §1, §3, §2

[4] = system: IPF-ABC; test: Human 3D bronchosphere assay, IPF-ABC single culture: bronchosphere formation; format: cell-based; conditions: IPF-ABC cultured in 3D, 21 days
Method: as §1, §3, §2

[5] = system: NRG mice; test: Humanized pulmonary fibrosis model: bleomycin plus intratracheal human IPF-ABCs in NRG mice; format: in vivo
Method: FIG. 6: SRC-inhibitor saracatinib attenuates fibrosis in the humanized mouse model. NRG mice were intratracheally injected with a low dose of bleomycin and 3 days later with human ABCs derived from IPF patients. Mice (n=11 each group, 4 replicates (all data shown)) were treated oropharyngeally with or without saracatinib in a dose of 10 mg/kg once daily starting at day 4 (A-C) or at day 8 (D-F). […] All P values were determined by a paired comparison (t-test) testing the effect of saracatinib treatment for each human IPF cell line.
To test the effect of saracatinib on IPF-ABC induced fibrosis and remodeling in-vivo, the inventors returned to the minimal injury xenotransplant model in NRG mice. Overall, the inventors used IPF-ABCs from 38 different individuals with IPF in these experiments. Per IPF subject, IPF-ABCs were used in two animals, one treated with saracatinib and one with vehicle control, to account for interindividual variability. To test the effect of saracatinib on engraftment and development of fibrosis we started treatment at day 4 post injury, one day post IPF-ABC installation for a total of 18 days (FIG. 6A). […] To test the effect of saracatinib on established fibrosis the inventors performed another set of experiments in which treatment was delayed to day 8 when cell engraftment and fibrosis were already established.
Different mice strains were used for the experiments as indicated. B6;129Sv-Rag2tm1Fwa/ZTM (75) (Rag2−/−) and NOD.Cg-Rag1tm1Mom Il2rgtm1Wjl/SzJZtm (76) (NRG) were obtained from the central animal facility (Hannover Medical School, Hannover). NOD.Cg-Prkdcscid Il2rgtm1Wjl Tg(CAGGS-VENUS)1/Ztm (Venus-NSG) mice were kindly provided by Dr. Wiebke Garrels (Hannover Medical School). Mice received bleomycin dissolved in sterile saline at the dose of 1.2 mg/kg intratracheally on day 0. IPF-ABCs, HV-ABCs (Rag 2−/−: 0.3×105, NRG and NSG: 0.2×105) were injected intratracheally on day 3. In some experiments human IPF-ABCs transduced with a lentiviral vector encoding for GFP and luciferase were injected. Pairs of mice received the same IPF-ABC line and were later treated either with vehicle or saractinib (kindly provided by Leslie Cousens AstraZeneca) in a dose of 10 mg/kg, i.g. once daily. For histological and immunohistological analysis, the trachea was cannulated and lungs were insufflated with 4% paraformaldehyde in PBS at a pressure of 25 cm H2O, followed by removal of the heart and inflated lungs en bloc and immersion in 4% paraformaldehyde overnight at 4° C., and the tissues were processed to paraffin wax or were cryopreserved using Tissue Tek® O.C.T.™ compound. […] Collagen content was determined by quantifying hydroxyproline levels according to manufacturer's description. […]

[6] = system: ABCs; test: Cellular vitality of ABCs; format: cell-based, human; conditions: all used concentrations (600, 210, 75, 25, 8 nM)
From the text: as §3

[7] = system: lung fibroblasts; test: Fibroblast proliferation (GFP+ fibroblasts) in IPF-ABC co-culture; format: cell-based, human; conditions: GFP+ fibroblasts co-cultured with IPF-ABC
Method: as §1, §3
ABCs, either derived from IPF patients or HV, were cultured in matrigel (Corning) in a transwell system with or without lung fibroblasts either derived from patients with IPF or normal lung for 21 days (if not otherwise indicated) in the incubator (5% CO2, 37° C.). […]

[8] = pirfenidone 1 mM, nintedanib 1 μM
[9] = 10 mg/kg once daily oropharyngeal, treatment from day 4, read at day 21
[10] = 10 mg/kg once daily, treatment delayed to day 8 (day 8 to day 21), established fibrosis

cellular vitality of ABCs [6] | Structure (SMILES) | cell proliferation as measured by the MTT assay [1] | bronchosphere formation [2, 8] | cell proliferation as measured by MTI assay [3] | bronchosphere formation [4, 8] | bronchosphere formation ([2]; saracatinib 8 nM) | bronchosphere formation ([2]; saracatinib 25 nM) | bronchosphere formation ([2]; saracatinib 600 nM, 210 nM and 75 nM) | Ashcroft score [5, 9] | hydroxyproline/total-protein levels [5, 9] | Ashcroft score [5, 10] | hydroxyproline content [5, 10] | fibroblast proliferation in the co-culture [7] | bronchosphere formation ([4]; saracatinib 600 nM, 210 nM, and 75 nM)
 | COC(=O)c1ccc2c(c1)NC(=O)/C2=C(\Nc1ccc(N(C)C(=O)CN2CCN(C)CC2)cc1)c1ccccc1 [nintedanib] | less reduced | significantly reduced bronchosphere formation, but not completely | slightly | no visible effect |  |  |  |  |  |  |  |  | 
 | Cc1ccc(=O)n(-c2ccccc2)c1 [pirfenidone] | less reduced | significantly reduced bronchosphere formation, but not completely | slightly | no visible effect |  |  |  |  |  |  |  |  | 
did not affect | CN1CCN(CCOc2cc(OC3CCOCC3)c3c(Nc4c(Cl)ccc5c4OCO5)ncnc3c2)CC1 [saracatinib, N-(5-chloro-1,3-benzodioxol-4-yl)-7-[2-(4-methyl-1-piperazinyl)ethoxy]-5-[(tetrahydro-2H-pyran-4-yl]oxy)-4-quinazolinamine] | significantly reduced |  | significantly reduced |  | did not have an effect | lower effect | completely blocked | 1.4±0.7 | 0.7±0.6 | significant reductions | significant reductions | substantially lower | complete abrogation
